Assay [1] has as its system crabgrass (Digitaria sanguinalis L.). Put plainly: Foliar treatment pot test, visual growth inhibition rate, crabgrass (DS). As to conditions: for inhibition at […]: 2.5 g/ha; for Growth inhibition rate (%) of DS Measured value: 4.0-4.2 leaf stage, 20 DAT. In kind it is in vivo. An excerpt:
(§1) When the herbicidal activity in a case where two active ingredients are combined, is larger than the simple sum of the respective herbicidal activities of the two active ingredients (the expected activity), it is called a synergistic effect. The activity expected by the combination of two active ingredients can be calculated as follows (Colby S. R., “Weed”, vol. 15, p. 20-22, 1967). E=α+β−(α×β÷100) where
(§2) Upland field soil was put into a 1/1,000,000 hectare pot, and seeds of various plants (barnyardgrass (Echinochloa crus-qalli L.), crabgrass (Digitaria sanguinalis L.), giant foxtail (Setaria faberi Herrm.), velvetleaf (Abutilon theophrasti MEDIC.) and prickly sida (Sida spinosa L.)) were sown. When the respective plants reached predetermined leaf stage, herbicidal compositions in predetermined amounts were diluted with water in an amount corresponding to 300 L/ha and applied for foliar treatment by a small sprayer.
(§3) Further, in accordance with the above Colby's formula, the growth inhibition rate (calculated value) was calculated. In Tables, with respect to the compound Q, Compound Nos. in Table 1 are described, and with respect to other herbicidal compounds, common names are described. Further, in Tables, barnyardgrass is represented by “EC”, crabgrass by “DS”, giant foxtail by “SF”, velvetleaf by “AT”, and prickly sida by “SS”.

Assay [2] concerns velvetleaf (Abutilon theophrasti MEDIC.). Description: Foliar treatment pot test, visual growth inhibition rate, velvetleaf (AT). In kind it is in vivo.
Excerpt: as §1, §2, §3

The mark [3] stands for this setting: Digitaria sanguinalis, foliar, 504 h, 4.0-5.1 leaf stage, 21 DAT, read-out: Growth inhibition rate (%) of DS Measured value.
Setting [4] is: Digitaria sanguinalis, foliar, 528 h, 4.0-5.0 leaf stage, 22 DAT, read-out: Growth inhibition rate (%) of DS Measured value.
The mark [5] stands for this setting: Abutilon theophrasti, foliar, 528 h, 4.5-5.0 leaf stage, 22 DAT, read-out: Growth inhibition rate (%) of AT Measured value.

Molecules are shown by their SMILES. Read-outs that look alike come from different tables or passages of the source.

For the molecule `CCOC(=O)C(Cl)Cc1cc(-n2nc(C)n(C(F)F)c2=O)c(F)cc1Cl` (stereo not shown) [Carfentrazone-ethyl, carfentrazone-ethyl], the inhibition at 15 g/ha in assay [1] (Digitaria sanguinalis, foliar, 336 h, read-out: Growth inhibition rate (%) of DS Measured value, 4.0-5.0 leaf stage, 14 DAT, 15 g/ha) came to 5%; in assay [1] (Digitaria sanguinalis, foliar, 384 h, read-out: Growth inhibition rate (%) of DS Measured value, 4.0-5.0 leaf stage, 16 DAT, 15 g/ha), 0%; in assay [2] (Abutilon theophrasti, foliar, 336 h, read-out: Growth inhibition rate (%) of AT Measured value, 3.0-4.0 leaf stage, 14 DAT, 15 g/ha), 98%. Also, the inhibition at 7 g/ha in assay [2] (Abutilon theophrasti, foliar, 504 h, read-out: Growth inhibition rate (%) of AT Measured value, 3.0-3.5 leaf stage, 21 DAT, 7 g/ha) worked out at 99%.
Regarding `COC(=O)c1c(Cl)nn(C)c1S(=O)(=O)NC(=O)Nc1nc(OC)cc(OC)n1` [Halosulfuron-methyl], the inhibition at 20 g/ha in assay [1] (Digitaria sanguinalis, foliar, 336 h, read-out: Growth inhibition rate (%) of DS Measured value, 5.0-5.5 leaf stage, 14 DAT, 20 g/ha) was found to be 0%.
For the molecule `COc1nc(C)nc(NC(=O)NS(=O)(=O)c2ccccc2CCC(F)(F)F)n1` [Prosulfuron, prosulfuron], the inhibition at 1.25 g/ha in assay [1] (Digitaria sanguinalis, foliar, 504 h, 4.0-5.1 leaf stage, 21 DAT, 1.25 g/ha, read-out: Growth inhibition rate (%) of DS Measured value) was found to be 10%; in assay [2] (Abutilon theophrasti, foliar, 504 h, 4.0-4.3 leaf stage, 21 DAT, 1.25 g/ha, read-out: Growth inhibition rate (%) of AT Measured value), 50%. The inhibition at […] was found to be 5% in assay [1] (setting [3]) and 0% in assay [1] (Digitaria sanguinalis, foliar, 528 h, 4.8-5.5 leaf stage, 22 DAT, read-out: Growth inhibition rate (%) of DS Measured value). Further, the inhibition at 5 g/ha in assay [1] (setting [3]) is 0%; in assay [1] (setting [4]), 0%; in assay [2] (Abutilon theophrasti, foliar, 504 h, 4.0-4.3 leaf stage, 21 DAT, read-out: Growth inhibition rate (%) of AT Measured value), 95%; in assay [2] (Abutilon theophrasti, foliar, 528 h, 4.1-4.5 leaf stage, 22 DAT, read-out: Growth inhibition rate (%) of AT Measured value) it was 90%; in assay [2] (setting [5]) it was 0%. Also, the inhibition at 10 g/ha worked out at 0% in assay [1] (Digitaria sanguinalis, foliar, 552 h, 4.0-5.1 leaf stage, 23 DAT, 10 g/ha, read-out: Growth inhibition rate (%) of DS Measured value); 100% in assay [2] (Abutilon theophrasti, foliar, 504 h, 3.0-3.5 leaf stage, 21 DAT, read-out: Growth inhibition rate (%) of AT Measured value); 0% in assay [2] (setting [5]).
For the molecule `CS(=O)(=O)c1ccc(C(=O)C2C(=O)CCCC2=O)c(Cl)c1` [Sulcotrione], the inhibition at 25 g/ha in assay [1] (Digitaria sanguinalis, foliar, 480 h, read-out: Growth inhibition rate (%) of DS Measured value, 3.7-4.0 leaf stage, 20 DAT, 25 g/ha) was 45%. The inhibition at 50 g/ha is 60% in assay [1] (Digitaria sanguinalis, foliar, 480 h, read-out: Growth inhibition rate (%) of DS Measured value, 3.7-4.0 leaf stage, 20 DAT, 50 g/ha) and 60% in assay [1] (Digitaria sanguinalis, foliar, 480 h, read-out: Growth inhibition rate (%) of DS Measured value, 5.1-5.2 leaf stage, 20 DAT, 50 g/ha). In addition, the inhibition at 100 g/ha in assay [1] (Digitaria sanguinalis, foliar, 480 h, read-out: Growth inhibition rate (%) of DS Measured value, 3.7-4.0 leaf stage, 20 DAT, 100 g/ha) was determined as 80%; in assay [1] (Digitaria sanguinalis, foliar, 480 h, read-out: Growth inhibition rate (%) of DS Measured value, 5.1-5.2 leaf stage, 20 DAT, 100 g/ha), 95%. The inhibition at 31 g/ha in assay [2] (Abutilon theophrasti, foliar, 576 h, read-out: Growth inhibition rate (%) of AT Measured value, 3.2-4.1 leaf stage, 24 DAT, 31 g/ha) came to 60%.
In the case of `O=C(O)CNCP(=O)([O-])O.[K+]` [Glyphosate-potassium], the entries for the “Growth inhibition rate (%) of DS Measured value” in assay [1] (62.5 g/ha), in assay [1] (125 g/ha) and in assay [1] (250 g/ha) were 0%, 5% and 20%, respectively.
Take `CCc1cc(C)cc(CC)c1-c1c(OC(=O)C(C)(C)C)n2n(c1=O)CCOCC2` [Pinoxaden]: the inhibition at 25 g/ha in assay [1] (Digitaria sanguinalis, foliar, 504 h, 4.0-5.1 leaf stage, 21 DAT, 25 g/ha, read-out: Growth inhibition rate (%) of DS Measured value) was 70%; in assay [2] (Abutilon theophrasti, foliar, 504 h, AT 4.0-4.3 leaf stage, 21 DAT, active ingredient 25 g/ha, read-out: Growth inhibition rate (%) of AT Measured value) it was 0%. The inhibition at 50 g/ha was 90% in assay [1] (Digitaria sanguinalis, foliar, 504 h, 4.0-5.1 leaf stage, 21 DAT, 50 g/ha, read-out: Growth inhibition rate (%) of DS Measured value) and 0% in assay [2] (Abutilon theophrasti, foliar, 504 h, AT 4.0-4.3 leaf stage, 21 DAT, active ingredient 50 g/ha, read-out: Growth inhibition rate (%) of AT Measured value). In addition, the inhibition at 100 g/ha was determined as 70% in assay [1] (Digitaria sanguinalis, foliar, 504 h, 4.0-5.1 leaf stage, 21 DAT, 100 g/ha, read-out: Growth inhibition rate (%) of DS Measured value) and 0% in assay [2] (Abutilon theophrasti, foliar, 504 h, AT 4.0-4.3 leaf stage, 21 DAT, active ingredient 100 g/ha, read-out: Growth inhibition rate (%) of AT Measured value).
For `CCS(=O)(=O)c1cccnc1S(=O)(=O)NC(=O)Nc1nc(OC)cc(OC)n1` [Rimsulfuron, rimsulfuron], the inhibition at 15 g/ha in assay [1] (Digitaria sanguinalis, foliar, 552 h, 4.0-5.1 leaf stage, 23 DAT, 15 g/ha, read-out: Growth inhibition rate (%) of DS Measured value) was found to be 98%; in assay [2] (Abutilon theophrasti, foliar, 552 h, 3.0-3.5 leaf stage, 23 DAT, 15 g/ha, read-out: Growth inhibition rate (%) of AT Measured value) it was 70%. In assay [2] (Abutilon theophrasti, foliar, 504 h, 3.5-4.3 leaf stage, 21 DAT, 20 g/ha, read-out: Growth inhibition rate (%) of AT Measured value), the inhibition at 20 g/ha is 99%.
Turning to `CCc1cccc(CC)c1N(COC)C(=O)CCl` [Alachlor, alachlor], the inhibition at 300 g/ha stood at 10% in assay [1] (Digitaria sanguinalis, foliar, 504 h, 5.0-5.5 leaf stage, 21 DAT, 300 g/ha, read-out: Growth inhibition rate (%) of DS Measured value) and 0% in assay [2] (Abutilon theophrasti, foliar, 504 h, 3.8-4.4 leaf stage, 21 DAT, 300 g/ha, read-out: Growth inhibition rate (%) of AT Measured value).
For `O=C(O)COc1ccc(Cl)cc1Cl` [2,4-D], in assay [2] (4.2-4.3 leaf stage, 20 DAT, 25 g/ha), the “Growth inhibition rate (%) of AT Measured value” worked out at 45%.
Regarding `CP(=O)(O)CCC(N)C(=O)O` (stereo not shown) [Glufosinate-ammonium, glufosinate-ammonium], the inhibition at 100 g/ha in assay [1] (Digitaria sanguinalis, foliar, 528 h, read-out: Growth inhibition rate (%) of DS Measured value, 4.0-5.0 leaf stage, 22 DAT, 100 g/ha) came to 0%. The inhibition at 200 g/ha is 10% in assay [2] (Abutilon theophrasti, foliar, 528 h, read-out: Growth inhibition rate (%) of AT Measured value, 4.1-4.5 leaf stage, 22 DAT, 200 g/ha) and 30% in assay [2] (Abutilon theophrasti, foliar, 576 h, read-out: Growth inhibition rate (%) of AT Measured value, 3.2-4.1 leaf stage, 24 DAT, 200 g/ha).
As to `CC(C)N1C(=O)c2ccccc2NS1(=O)=O` [Bentazone-sodium, bentazone-sodium], the inhibition at 200 g/ha in assay [1] (setting [4]) was 0%; in assay [1] (Digitaria sanguinalis, foliar, 552 h, 4.0-5.1 leaf stage, 23 DAT, read-out: Growth inhibition rate (%) of DS Measured value), 0%; in assay [2] (Abutilon theophrasti, foliar, 552 h, 3.0-3.5 leaf stage, 23 DAT, 200 g/ha, read-out: Growth inhibition rate (%) of AT Measured value), 30%. For the same molecule, in assay [2] (Abutilon theophrasti, foliar, 528 h, 4.1-4.5 leaf stage, 22 DAT, 100 g/ha, read-out: Growth inhibition rate (%) of AT Measured value), the inhibition at 100 g/ha came to 0%.
For the molecule `CON(C)C(=O)Nc1ccc(Cl)c(Cl)c1` [Linuron, linuron], the inhibition at 250 g/ha in assay [1] (Digitaria sanguinalis, foliar, 336 h, 5.0-5.5 leaf stage, 14 DAT, 250 g/ha, read-out: Growth inhibition rate (%) of DS Measured value) is 30%; in assay [2] (Abutilon theophrasti, foliar, 336 h, 3.5-4.3 leaf stage, 14 DAT, read-out: Growth inhibition rate (%) of AT Measured value) it was 85%; in assay [2] (Abutilon theophrasti, foliar, 576 h, 3.2-4.1 leaf stage, 24 DAT, read-out: Growth inhibition rate (%) of AT Measured value) it was 40%.
For `CCOC(=O)OC(C)Oc1c(C(=O)c2ccc(S(C)(=O)=O)c(OCCOC)c2C)cnn1C` (stereo not shown) [NO. 2], in assay [2] (4.0-4.3 leaf stage, 22 DAT, 3.75 g/ha), the “Growth inhibition rate (%) of AT Measured value” was 0%.
For `CS(=O)(=O)c1ccc(C(=O)C2C(=O)CCCC2=O)c(Cl)c1` [sulcotrione], the inhibition at 25 g/ha in assay [2] (Abutilon theophrasti, foliar, 480 h, read-out: Growth inhibition rate (%) of AT Measured value, 4.0-4.2 leaf stage, 20 DAT, 25 g/ha) was 40%. For the same molecule, the inhibition at 50 g/ha in assay [2] (Abutilon theophrasti, foliar, 480 h, read-out: Growth inhibition rate (%) of AT Measured value, 4.0-4.2 leaf stage, 20 DAT, 50 g/ha) came to 60%. In assay [2] (Abutilon theophrasti, foliar, 480 h, read-out: Growth inhibition rate (%) of AT Measured value, 4.0-4.2 leaf stage, 20 DAT, 100 g/ha), the inhibition at 100 g/ha was 95%.

The record behind these values is patent publication US8492310B2, “Herbicidal compositions containing benzoylpyrazole compounds” (priority 2008, dated 2013).
